Assays:
Assay type in all cases: functional
[1] = tested on: Clostridium tertium; experiment: Antimicrobial activity in Clostridium tertium by CLSI agar dilution method in presence of clavulanate
[2] = tested on: Lactobacillus; experiment: Antimicrobial activity in Lactobacillus by CLSI agar dilution method in presence of clavulanate
[3] = tested on: Fusobacterium mortiferum; experiment: Antimicrobial activity in Fusobacterium mortiferum by CLSI agar dilution method in presence of clavulanate
[4] = tested on: Clostridium cadaveris; experiment: Antimicrobial activity in Clostridium cadaveris by CLSI agar dilution method in presence of clavulanate
[5] = tested on: Hoylesella oralis; experiment: Antimicrobial activity in Prevotella oralis group by CLSI agar dilution method in presence of clavulanate
[6] = tested on: Fusobacterium necrophorum; experiment: Antimicrobial activity in Fusobacterium necrophorum by CLSI agar dilution method in presence of clavulanate
[7] = tested on: Prevotella disiens; experiment: Antimicrobial activity in Prevotella disiens by CLSI agar dilution method in presence of clavulanate
[8] = tested on: Prevotella nigrescens; experiment: Antimicrobial activity in Prevotella nigrescens by CLSI agar dilution method in presence of clavulanate
[9] = tested on: Bacteroides uniformis; experiment: Antimicrobial activity in Bacteroides uniformis by CLSI agar dilution method in presence of clavulanate
[10] = tested on: Prevotella corporis; experiment: Antimicrobial activity in Prevotella corporis by CLSI agar dilution method in presence of clavulanate
[11] = tested on: Phocaeicola vulgatus; experiment: Antimicrobial activity in Bacteroides vulgatus by CLSI agar dilution method in presence of clavulanate
[12] = tested on: Prevotella bergensis; experiment: Antimicrobial activity in Prevotella bergensis by CLSI agar dilution method in presence of clavulanate; settings: Hallella bergensis
[13] = tested on: Paraclostridium bifermentans; experiment: Antimicrobial activity in Clostridium bifermentans by CLSI agar dilution method in presence of clavulanate
[14] = tested on: Paeniclostridium sordellii; experiment: Antimicrobial activity in Clostridium sordellii by CLSI agar dilution method in presence of clavulanate; settings: Paraclostridium sordellii
[15] = tested on: Clostridioides difficile; experiment: Antimicrobial activity in Clostridium difficile by CLSI agar dilution method in presence of clavulanate
[16] = tested on: [Clostridium] innocuum; experiment: Antimicrobial activity in Clostridium innocuum by CLSI agar dilution method in presence of clavulanate
[17] = tested on: Porphyromonas asaccharolytica; experiment: Antimicrobial activity in Porphyromonas asaccharolytica by CLSI agar dilution method in presence of clavulanate
[18] = tested on: Prevotella veroralis; experiment: Antimicrobial activity in Prevotella veroralis by CLSI agar dilution method in presence of clavulanate
[19] = tested on: Bifidobacterium; experiment: Antimicrobial activity in Bifidobacterium by CLSI agar dilution method in presence of clavulanate
[20] = tested on: Eggerthella lenta; experiment: Antimicrobial activity in Eggerthella lenta by CLSI agar dilution method in presence of clavulanate
[21] = tested on: Clostridium sp.; experiment: Antimicrobial activity in Clostridium sp. by CLSI agar dilution method in presence of clavulanate
[22] = tested on: Prevotella intermedia; experiment: Antimicrobial activity in Prevotella intermedia by CLSI agar dilution method in presence of clavulanate
[23] = tested on: Cutibacterium acnes; experiment: Antimicrobial activity in Propionibacterium acnes by CLSI agar dilution method in presence of clavulanate
[24] = tested on: Parabacteroides distasonis; experiment: Antimicrobial activity in Bacteroides distasonis by CLSI agar dilution method in presence of clavulanate
[25] = tested on: Enterocloster clostridioformis; experiment: Antimicrobial activity in Clostridium clostridioforme by CLSI agar dilution method in presence of clavulanate
[26] = tested on: Fusobacterium nucleatum; experiment: Antimicrobial activity in Fusobacterium nucleatum by CLSI agar dilution method in presence of clavulanate
[27] = tested on: Bacteroides ovatus; experiment: Antimicrobial activity in Bacteroides ovatus by CLSI agar dilution method in presence of clavulanate
[28] = tested on: Prevotella buccae; experiment: Antimicrobial activity in Prevotella buccae by CLSI agar dilution method in presence of clavulanate; settings: Segatella buccae
[29] = tested on: Tissierella praeacuta; experiment: Antimicrobial activity in Clostridium hastiforme by CLSI agar dilution method in presence of clavulanate
[30] = tested on: Bacteroides fragilis; experiment: Antimicrobial activity in Bacteroides fragilis by CLSI agar dilution method in presence of clavulanate
[31] = tested on: Peptostreptococcus anaerobius; experiment: Antimicrobial activity in Peptostreptococcus anaerobius by CLSI agar dilution method in presence of clavulanate
[32] = tested on: Clostridium perfringens; experiment: Antimicrobial activity in Clostridium perfringens by CLSI agar dilution method in presence of clavulanate
[33] = tested on: Finegoldia magna; experiment: Antimicrobial activity in Finegoldia magna by CLSI agar dilution method in presence of clavulanate
[34] = tested on: Porphyromonas gingivalis; experiment: Antimicrobial activity in Porphyromonas gingivalis by CLSI agar dilution method in presence of clavulanate
[35] = tested on: Anaerococcus prevotii; experiment: Antimicrobial activity in Anaerococcus prevotii by CLSI agar dilution method in presence of clavulanate
[36] = tested on: Bacteroides stercoris; experiment: Antimicrobial activity in Bacteroides stercoris by CLSI agar dilution method in presence of clavulanate
[37] = tested on: Anaerococcus tetradius; experiment: Antimicrobial activity in Anaerococcus tetradius by CLSI agar dilution method in presence of clavulanate
[38] = tested on: Prevotella bivia; experiment: Antimicrobial activity in Prevotella bivia by CLSI agar dilution method in presence of clavulanate
[39] = tested on: Prevotella salivae; experiment: Antimicrobial activity in Prevotella salivae by CLSI agar dilution method in presence of clavulanate; settings: Segatella salivae
[40] = tested on: Fusobacterium varium; experiment: Antimicrobial activity in Fusobacterium varium by CLSI agar dilution method in presence of clavulanate
[41] = tested on: Thomasclavelia ramosa; experiment: Antimicrobial activity in Clostridium ramosum by CLSI agar dilution method in presence of clavulanate
[42] = tested on: Hoylesella loescheii; experiment: Antimicrobial activity in Prevotella loescheii by CLSI agar dilution method in presence of clavulanate
[43] = tested on: Actinomyces; experiment: Antimicrobial activity in Actinomyces by CLSI agar dilution method in presence of clavulanate
[44] = tested on: Clostridium butyricum; experiment: Antimicrobial activity in Clostridium butyricum by CLSI agar dilution method in presence of clavulanate
[45] = tested on: Bacteroides thetaiotaomicron; experiment: Antimicrobial activity in Bacteroides thetaiotaomicron by CLSI agar dilution method in presence of clavulanate
[46] = tested on: Prevotella baroniae; experiment: Antimicrobial activity in Prevotella baroniae by CLSI agar dilution method in presence of clavulanate; settings: Segatella baroniae
[47] = tested on: Peptoniphilus asaccharolyticus; experiment: Antimicrobial activity in Peptoniphilus asaccharolyticus by CLSI agar dilution method in presence of clavulanate
[48] = tested on: Prevotella sp.; experiment: Antimicrobial activity in Prevotella sp.by CLSI agar dilution method in presence of clavulanate
[49] = tested on: Prevotella melaninogenica; experiment: Antimicrobial activity in Prevotella melaninogenica by CLSI agar dilution method in presence of clavulanate
[50] = tested on: Parvimonas micra; experiment: Antimicrobial activity in Micromonas micros by CLSI agar dilution method in presence of clavulanate
[51] = tested on: Prevotella denticola; experiment: Antimicrobial activity in Prevotella denticola by CLSI agar dilution method in presence of clavulanate

CC1(C)S[C@@H]2[C@H](NC(=O)[C@H](N)c3ccc(O)cc3)C(=O)N2[C@H]1C(=O)O [AMOXICILLIN]
1 µg/mL: MIC50 [2] | MIC90 [2] | MIC50 [3] | MIC50 [11] | MIC50 [15] | MIC50 [20] | MIC90 [20] | MIC [25] | MIC90 [28] | MIC [29] | MIC50 [36] | MIC [44] | MIC50 [45]
0.25 µg/mL: MIC50 [7] | MIC [13] | MIC90 [19] | MIC90 [23] | MIC50 [31] | MIC50 [33] | MIC90 [33] | MIC [42] | MIC50 [43] | MIC50 [49] | MIC50 [51]
0.5 µg/mL: MIC [1] | MIC50 [1] | MIC90 [8] | MIC [9] | MIC50 [9] | MIC [12] | MIC50 [21] | MIC90 [21] | MIC90 [22] | MIC [27] | MIC50 [27] | MIC50 [30] | MIC [36] | MIC50 [38] | MIC90 [50]
8 µg/mL: MIC90 [11]
2 µg/mL: MIC90 [15] | MIC90 [27] | MIC90 [30] | MIC50 [40] | MIC90 [40] | MIC90 [49] | MIC90 [51]
32 µg/mL: MIC90 [3] | MIC90 [31]
≤ 0.125 µg/mL: MIC [4] | MIC [5] | MIC [6] | MIC50 [6] | MIC [7] | MIC [8] | MIC50 [8] | MIC [10] | MIC50 [10] | MIC [14] | MIC [16] | MIC [17] | MIC [18] | MIC [19] | MIC50 [19] | MIC [22] | MIC50 [22] | MIC [23] | MIC50 [23] | MIC [26] | MIC50 [26] | MIC90 [26] | MIC [28] | MIC50 [28] | MIC [32] | MIC50 [32] | MIC90 [32] | MIC [34] | MIC [35] | MIC [37] | MIC50 [37] | MIC90 [37] | MIC [39] | MIC [41] | MIC [43] | MIC [46] | MIC [47] | MIC50 [47] | MIC [48] | MIC [50] | MIC50 [50]
16 µg/mL: MIC90 [24]
4 µg/mL: MIC50 [24] | MIC90 [38] | MIC90 [45]
